In PMC7288168, “Synthesis and Cytotoxic Activity of Chiral Sulfonamides Based on the 2-Azabicycloalkane Skeleton” (Molecules, 2020):

Columns and labels:
DAOY cells = test: Neutral red cell viability assay, DAOY; type: cell-based, human; conditions: for reduction of cell viability, DAOY: 50 µM, 24 h, first screening; for IC50: Homo sapiens, Daoy, 24 h treatment, neutral red, read-out: LD50 DAOY (MB)
Experimental: (§1) The human hepatocellular carcinoma (HCC) cell line HUH7 was purchased from ATCC (LGC standards GmbH, Wesel, Germany). The Austrian human HCC cell line AKH12 has been well characterized and was kindly provided by Prof. Bettina Grasl-Kraupp. HUH7 cells were cultured in Dulbecco’s modified Eagle’s medium (Thermo Fisher Scientific, Waltham, MA, USA) containing 10% heat-inactivated fetal bovine serum (FBS) (Sigma-Aldrich, St. Louis, MO, USA), 1% penicillin-streptomycin (10,000 U/mL) (Thermo Fisher Scientific, Waltham, MA, USA), and 1% minimum essential medium nonessential amino acids (100x) (Thermo Fisher Scientific, Waltham, MA, USA). AKH12 cells were cultured in RPMI1640 medium (Sigma-Aldrich, St. Louis, MO, USA) containing 10% heat-inactivated FBS. DAOY and D283Med (short D283) medulloblastoma (MB) cells were purchased from ATCC (LGC standards GmbH, Wesel, Germany). D425Med (short D425) and UW228-2 were provided by Thomas Ströbel from the Institute of Neurology Medical University of Vienna. The cells were cultured in Dulbecco’s modified Eagle’s medium (Sigma-Aldrich, St. Louis, MO, USA) containing 10% FBS (Sigma-Aldrich, St. Louis, MO, USA), 2% L-Glutamine (Sigma-Aldrich, St. Louis, MO, USA), and 0.2% Normocin (Sigma-Aldrich, St. Louis, MO, USA). U-251 MG (short U251) glioblastoma (GBM) cell line was purchased from Sigma-Aldrich and cultured in Dulbecco’s modified Eagle’s medium (Sigma-Aldrich, St. Louis, MO, USA) containing 10% FBS (Sigma-Aldrich, St. Louis, MO, USA), 2% L-Glutamine (Sigma-Aldrich, St. Louis, MO, USA), and 0.2% Normocin (Sigma-Aldrich, St. Louis, Missouri, USA). Human umbilical vein endothelial cells (HUVECs) were provided by Brigitte Winter from the Department of Surgery Medical University of Vienna and were grown in endothelial cell growth medium-2 BulletKitTM (Lonza, Basel, Switzerland) under standard tissue culture conditions. All cells were incubated at 37 °C in a 5% CO2 atmosphere and regularly checked for mycoplasma contamination.
(§2) Cell viability was determined using a neutral red assay, as previously described. The cells were placed in 24-well plates and grown to reach 70–80% confluency prior to treatment. After treatment for 24 h, cells were incubated with neutral red at a concentration of 50 µg/mL in serum-free medium for 2 h at 37 °C. Cells were then washed 2x and incubated with 1% acetic acid in 70% ethanol. The dye concentration was measured photometrically at 562 nm. The percentage of survival was calculated considering DMSO-treated (indicated as 0 µM concentration) cells as 100% control.
(§3) LD50 was defined as the amount of a toxic agent required to eliminate 50% of the cell population. The LD50 was calculated in each experiment from the respective dose–response curve. All experiments were performed in triplicate wells.

AKH12 cells = test: Neutral red cell viability assay, AKH12; type: cell-based, human; conditions: for reduction of cell viability, AKH12: 50 µM, 24 h, first screening; for IC50: Homo sapiens, 24 h treatment, neutral red, read-out: LD50 AKH12 (HCC)
Experimental: as §1, §2, §3

UW228-2 cells = test: Neutral red cell viability assay, UW228-2; type: cell-based, human; conditions: for reduction of cell viability, UW228-2: 50 µM, 24 h, first screening; for IC50: Homo sapiens, UW228-2, 24 h treatment, neutral red, read-out: LD50 UW228-2 (MB)
Experimental: as §1, §2, §3

D283 cells = test: Neutral red cell viability assay, D283; type: cell-based, human; conditions: for reduction of cell viability, D283: 50 µM, 24 h, first screening; for IC50: Homo sapiens, D283, 24 h treatment, read-out: LD50 D283 (MB)
Experimental: as §1, §2, §3

U251 cells = test: Neutral red cell viability assay, U251; type: cell-based, human; conditions: for decrease of cell viability, U251: 50 µM, 24 h, first screening; for IC50: Homo sapiens, U-251, 24 h treatment, neutral red, read-out: LD50 U251 (GBM)
Experimental: as §1, §2, §3

HUH7 cells = test: Neutral red cell viability assay, HUH7; type: cell-based, human; conditions: for IC50: Homo sapiens, Huh-7, 24 h treatment, neutral red, read-out: LD50 HUH7 (HCC)
Experimental: as §1, §2, §3

HUVEC cells [1] = test: Cell viability assay MTT/CellTiter Blue, HUVEC (Table 2); type: cell-based; conditions: Table 2, nonmalignant primary cells, 24 h, assay as for D425
Experimental: as §1, §3
(§4) One day before treatment, 2 × 10^4 of D425Med or HUVEC cells were seeded into 24-well plates and incubated at 37 °C in a humidified atmosphere containing 5% CO2.The cells were treated with different compounds for 24 h. A […] assay using the CellTiter Blue reagent (Promega, Fitchburg, Wisconsin, USA) was performed according to the manufacturer’s protocol. Experiments were performed in triplicate and repeated three times. The percentage of survival was calculated as the ratio using DMSO-treated (indicated as 0 µM concentration) cells as 100% control.

D425 cells = test: Cell viability assay (suspension cell line), MTT/CellTiter Blue, D425; type: cell-based, human; conditions: for reduction of cell viability, D425: 50 µM, 24 h, first screening; for IC50: Homo sapiens, read-out: LD50 D425 (MB); for IC50 / LD50 D425 (MB): 24 h treatment, suspension cell assay; for HUVEC/D425 LD50 Fold Change: ratio of LD50 HUVEC to LD50 D425; for D425 cell viability as compared to HUVEC cells: dose-response 24 h, Student's t-test, p ≤0.05 / p ≤0.01
Experimental: as §1, §3, §4

HUVEC cells [2] = test: Neutral red cell viability assay, HUVEC (Table 1); type: cell-based; conditions: Table 1, nonmalignant primary cells, 24 h
Experimental: as §1, §2, §3

| SMILES | reduction of cell viability, DAOY (DAOY cells) | IC50 (DAOY cells) | reduction of cell viability, AKH12 (AKH12 cells) | IC50 (AKH12 cells) | reduction of cell viability, UW228-2 (UW228-2 cells) | IC50 (UW228-2 cells) | reduction of cell viability, D283 (D283 cells) | IC50 (D283 cells) | decrease of cell viability, U251 (U251 cells) | IC50 (U251 cells) | IC50 (HUH7 cells) | LD50 HUVEC (HUVEC cells [1]) | reduction of cell viability, D425 (D425 cells) | IC50 (D425 cells) | HUVEC/D425 LD50 Fold Change (D425 cells) | LD50 HUVEC (HUVEC cells [2]) | D425 cell viability as compared to HUVEC cells (D425 cells) | LD50 D425 (MB) (D425 cells) | reduction of cell viability, HUH7 (HUH7 cells; 50 µM, 24 h, first screening) |
| --- | --- | --- | --- | --- | --- | --- | --- | --- | --- | --- | --- | --- | --- | --- | --- | --- | --- | --- | --- |
| CC(c1ccccc1)N1C2CCC(C2)C1CNS(=O)(=O)c1ccc(-c2ccccc2)cc1 (stereo not drawn) [Compound 10a] | reduced cell viability | 16 ± 1.12 µM | reduced cell viability below LD50 | 15.5 ± 1.3 µM | reduced cell viability | 28.8 ± 2.1 µM | reduced cell viability | 17.7 ± 1.09 µM | more than 50% | 13.5 ± 0.9 µM | 13.9 ± 1.02 µM | 28 ± 1.86 µM | reduced cell viability | 16.7 ± 2.11 µM | 1.67 | 11.58 ± 1.11 µM | – | – | – |
| Cc1ccc(-c2ccc(S(=O)(=O)NCC3C4CCC(C4)N3C(C)c3ccccc3)cc2)cc1 [Compound 10b, 4-(4-Tolyl)-N-((2-((S)-1-phenylethyl)-(1S,3R,4R)-2-azabicyclo[2.2.1]heptane-3-yl)benzenesulfonamide] | – | – | reduced cell viability below LD50 | 23.7 ± 1.27 µM | – | – | – | 31.3 ± 1.32 µM | more than 50% | 20.4 ± 1.58 µM | 21.3 ± 1.23 µM | 28.9 ± 2.97 µM | – | 16.4 ± 2.34 µM | 1.76 | 12.88 ± 2.13 µM | significantly reduced D425 cell viability as compared to HUVEC cells | – | – |
| CC(c1ccccc1)N1C2CCC(C2)C1CNS(=O)(=O)c1ccc(-c2ccc(F)cc2)cc1 [Compound 10c, 4-(4-Fluorophenyl)-N-((2-((S)-1-phenylethyl)-(1S,3R,4R)-2-azabicyclo[2.2.1]heptane-3-yl)benzenesulfonamide] | reduced cell viability | 16 ± 2.1 µM | reduced cell viability below LD50 | 23.3 ± 2.1 µM | reduced cell viability | 15.7 ± 1.32 µM | reduced cell viability | 27.2 ± 2.35 µM | more than 50% | 21.3 ± 1.01 µM | 17.3 ± 0.98 µM | 16.77 ± 0.71 µM | reduced cell viability | 5.38 µM | 3.11 | 13.8 ± 1.14 µM | significantly reduced D425 cell viability as compared to HUVEC cells | 5.38 ± 0.77 µM | – |
| COc1ccc(-c2ccc(S(=O)(=O)NCC3C4CCC(C4)N3C(C)c3ccccc3)cc2)cc1 [Compound 10e, 4-(4-Metoxyphenyl)-N-((2-((S)-1-phenylethyl)-(1S,3R,4R)-2-azabicyclo[2.2.1]heptane-3-yl)benzenesulfonamide] | reduced cell viability | 15.5 ± 1.62 µM | reduced cell viability below LD50 | 32 ± 2.21 µM | reduced cell viability | 26.7 ± 1.52 µM | reduced cell viability | 15.6 ± 0.59 µM | more than 50% | 16 ± 2 µM | 16.3 ± 0.69 µM | 11.54 ± 2.8 µM | reduced cell viability | 11 ± 0.47 µM | 1.05 | 9.58 ± 1.88 µM | significantly reduced D425 cell viability as compared to HUVEC cells | – | – |
| CC(c1ccccc1)N1C2CCC(C2)C1CNS(=O)(=O)c1ccc(C(F)(F)F)cc1 [Compound 10f, 4-Trifluoromethyl-N-((2-((S)-1-phenylethyl)-(1S,3R,4R)-2-azabicyclo[2.2.1]heptane-3-yl)benzenesulfonamide] | reduced cell viability | 15.8 ± 1.09 µM | reduced cell viability below LD50 | 24.7 ± 1.98 µM | reduced cell viability | 28 ± 2.09 µM | reduced cell viability | 18.8 ± 1.22 µM | more than 50% | 32.7 ± 1.32 µM | 24.6 ± 1.54 µM | 23.15 ± 2.21 µM | reduced cell viability | 20.2 ± 0.79 µM | 1.14 | 17.26 ± 2.33 µM | – | – | – |
| CC(c1ccccc1)N1C2CCC(C2)C1CNS(=O)(=O)c1cc(C(F)(F)F)cc(C(F)(F)F)c1 [Compound 10g, 3,5-Bis(trifluoromethyl)-N-((2-((S)-1-phenylethyl)-(1S,3R,4R)-2-azabicyclo[2.2.1]heptane-3-yl)benzenesulfonamide] | reduced cell viability | 19.2 ± 1.42 µM | reduced cell viability below LD50 | 10.2 ± 1.09 µM | reduced cell viability | 12 ± 0.99 µM | reduced cell viability | 16 ± 1 µM | more than 50% | 11.8 ± 1.58 µM | 11.7 ± 1.53 µM | 17.62 ± 2.98 µM | reduced cell viability | 6.61 µM | 2.66 | 10.77 ± 0.93 µM | significantly reduced D425 cell viability as compared to HUVEC cells | 6.61 ± 1.52 µM | – |
| CC(c1ccccc1)N1CC(NS(=O)(=O)c2ccc(C(F)(F)F)cc2)C2CCC1C2 [Compound 11f, 4-Trifluoromethyl-N-((2-((S)-1-phenylethyl)-(1S,4S,5R)-2-azabicyclo[3.2.1]octan-4-yl)benzenesulfonamide] | reduced cell viability | 17.3 ± 0.99 µM | – | – | reduced cell viability | 31.4 ± 2.12 µM | reduced cell viability | 29.9 ± 1.5 µM | more than 50% | 31.5 ± 2 µM | 42.7 ± 1.98 µM | 31.52 ± 1.16 µM | reduced cell viability | 32 ± 1.37 µM | 0.98 | 22.28 ± 1.45 µM | – | – | more than 50% |
